Measured values taken from patent US6204415A, “Triazole derivative or salt thereof, preparation process thereof and pharmaceutical containing said compound as an effective ingredient” (SSP Co., Ltd., priority 1997, dated 2001).
≈ marks a conversion by molar mass, not a printed value.

How the values were obtained:
Candida albicans = test: Test 1: Action against Candida albicans (in vitro), suppression of mycelial type growth; assay type: cell-based, Candida albicans ATCC 44859; conditions: ATCC44859, C. albicans ATCC 44859, 10% fetal-bovine-serum added MEM, 37° C., 24 hours, CO2 incubator, read-out: Terminal point (minimum medicament concentration permitting the apparent suppression of mycerial type growth)
Procedure: Test 1: Action Against Candida albicans (in vitro)
The resulting mixture was incubated at 37° C. for 24 hours in a CO2 gas incubator. After incubation, a morphological change of C. albicans was observed under an inverted microscope. The minimum medicament concentration permitting the apparent suppression of mycerial type growth compared with that of a medicament-free control was designated as a terminal point (ng/ml).

Aspergillus fumigatus = test: Test 2: Action against Aspergillus fumigatus (in vitro), MIC; assay type: cell-based, Aspergillus fumigatus IFM 40808; conditions: A. fumigatus IFM 40808, MOPS-containing RPMI 1640, pH 7, almar Blue, 35° C., 48 hours
Procedure: Test 2: Action Against Aspergillus fumigatus (in vitro)
They were incubated at 35° C. for 48 hours. Judgment was made visually and the minimum medicament concentration not permitting a change into red (the medium maintained blue color) was designated as an MIC value (μg/ml).

C. albicans IFM 40009 = test: Test 3: Action against Candida albicans (in vivo), systemic infection in mice; conditions: i.v. C. albicans 3.0×10^6 cells/mouse, oral 1.25 mg/kg each, four times; for Surviving mice on Day 14 (number of surviving mice/total number in group): Day 14, control 0/11; for Average Survival days: Kaplan-Meier method (Cox mantel test), control 4.5
Procedure: Test 3: Action Against Candida albicans (in vivo)
After 4-week-old, male, ICR (CRJ: CD-1) mice were fasted for 6 hours, C. albicans IFM 40009 was inoculated to the tail vein of each of the mice to give an amount of 3.0×10^6 cells/mouse, whereby infection was caused. A control group consisted of 11 mice, while a medicament-administered group consisted of 5 mice. The medicament dissolved in 20% polyethylene glycol was orally administered 1 hour after the inoculation of the fungus and then consecutively once a day 24 hours after the inoculation, four times in total, at 1.25 mg/kg each. The survival condition on Day 14 after the infection was compared. In addition, the survival days of the control group and the medicament-administered group were detected by the Kaplan-Meier method (Cox mantel test). Incidentally, Fluconazole was employed as a medicament for comparison.

Structure (SMILES) | minimal effective concentration (Candida albicans) | MIC (Aspergillus fumigatus) | Surviving mice on Day 14 (number of surviving mice/total number in group) (C. albicans IFM 40009) | Average Survival days (C. albicans IFM 40009)
CCSC(F)(F)C(O)(Cn1cncn1)c1ccc(F)cc1 (stereo not drawn) [Example 10, 1-(ethylthio)-1,1-difluoro-2-(4-fluorophenyl)-3-(1H-1,2,4-triazol-1-yl)-2-propanol] | 0.0313 µg/mL | 8 µg/mL (≈ 25.2 µM) | – | –
CCS(=O)(=O)C(F)(F)C(O)(Cn1cncn1)c1ccc(F)cc1F (racemic) [Example 15, 2-(2,4-difluorophenyl)-1-(ethylsulfonyl) -1,1-difluoro-3-(1H-1,2,4-triazole-1-yl)-2-propanol] | 0.0313 µg/mL | 8 µg/mL (≈ 21.8 µM) | 4/5 | 14.00 days
CCS(=O)(=O)C(F)(F)C(O)(Cn1cncn1)c1ccc(F)cc1 (single isomer, unassigned; (-)) [Example 22(2), (-)-1-(Ethylsulfonyl)-1,1-difluoro-2-(4-fluorophenyl)-3-(1H-1,2,4-triazol-1-yl)-2-propanol] | 0.0156 µg/mL | 8 µg/mL (≈ 22.9 µM) | – | –
CCS(=O)(=O)C(F)(F)C(O)(Cn1cncn1)c1ccc(Cl)cc1Cl (stereo not drawn) [Example 18, 2-(2,4-dichlorophenyl)-1-(ethylsulfonyl)-1,1-difluoro-3-(1H-1,2,4-triazol-1-yl)-2-propanol] | 0.0156 µg/mL | 8 µg/mL (≈ 20 µM) | – | –
CCS(=O)(=O)C(F)(F)C(O)(Cn1cncn1)c1ccc(F)cc1F (single isomer, unassigned; (-)) [Example 21(2), (-)-2-(2,4-difluorophenyl)-1-(ethylsulfonyl)-1,1-difluoro-3-(1H-1,2,4-triazol-1-yl)-2-propanol] | 0.0156 µg/mL | 4 µg/mL (≈ 10.9 µM) | – | –
CCSC(F)(F)C(O)(Cn1cncn1)c1ccc(Cl)cc1Cl (stereo not drawn) [Example 12, 2-(2,4-dichlorophenyl)-1-(ethylthio)-1,1-difluoro-3-(1H-1,2,4-triazol-1-yl)-2-propanol] | 0.0039 µg/mL | 1 µg/mL (≈ 2.72 µM) | – | –
CCSC(F)(F)C(O)(Cn1cncn1)c1ccc(C(F)(F)F)cc1 (stereo not drawn) [Example 11, 1-(ethylthio)-1,1-difluoro-2-(4-trifluoromethylphenyl)-3-(1H-1,2,4-triazol-1-yl)-2-propanol] | 0.0078 µg/mL | 16 µg/mL (≈ 43.6 µM) | – | –
OC(Cn1cncn1)(Cn1cncn1)c1ccc(F)cc1F [Fluconazole, reference compound] | 0.25 µg/mL | > 128 µg/mL | 1/5 | 11.0 days
CCSC(F)(F)C(Cn1cncn1)(OC)c1ccc(F)cc1F (stereo not drawn) [Example 13, 1-[2-(2,4-difluorophenyl)-3-ethylthio-3,3-difluoro-2-methoxypropyl]-1H-1,2,4-triazole] | 0.0313 µg/mL | 8 µg/mL (≈ 22.9 µM) | – | –
CCSC(F)(F)C(O)(Cn1cncn1)c1ccc(F)cc1F (stereo not drawn) [Example 9, 2-(2,4-difluorophenyl)-1-(ethylthio)-1,1-difluoro-3-(1H-1,2,4-triazol-1-yl)-2-propanol] | 0.0078 µg/mL | 2 µg/mL (≈ 5.96 µM) | – | –
